Results taken from US10010560B2, “Small molecule HSP70 inhibitors” (THE TRUSTEES OF THE UNIVERSITY OF PENNSYLVANIA, priority 2014, dated 2018).

Columns and labels:
ADP-HSP70 (WT, aa 1-641) = biological target: T1, ADP-HSP70 (WT, aa 1-641) (Homo sapiens, UniProt P0DMV8, E110D); assay: ITC binding to ADP-bound full-length HSP70
T1 construct: Full-length recombinant proteins of HSP70 (aa 1-641) as well as DnaK (aa 1-638); His6 (N); made in house; host or cells: E. coli BL21 Star (DE3)
Description: The human stress-inducible HSP70 (residues 1-641 or 386-616 of SEQ ID NO: 2) and E. coli DnaK (residues 1-638, 389-607, or 393-507 of SEQ ID NO: 4) were cloned into the pET25 vector (EMD Millipore Chemicals, Inc., Billerica, Mass., USA) between the NdeI and XhoI restriction sites. The full-length HSP70 and DnaK mutants were constructed by PCR-based site-directed mutagenesis using the QuikChange™ Site-Directed Mutagenesis Kit (Agilent Technologies, Inc., Santa Clara, Calif., USA). All plasmid inserts were verified by DNA sequencing. All HSP70 and DnaK variants were produced with a N-terminal His6-tag in the E. coli BL21 Star (DE3) strain (Invitrogen catalog number C6010-03). The resulting strains were grown at 37° C. in LB medium containing 50 μg/mL of carbenicillin (Sigma-Aldrich Co., St. Louis, Mo., USA). At an OD600 about 0.3 to about 0.5, protein expression was induced with 0.5 mM isopropyl-β-D-thiogalactopyranoside (IPTG), and cells were subsequently grown at 25° C. for about 16 h. Cells were collected by centrifugation and resuspended in the Bugbuster® Master Mix (EMD Millipore Chemicals catalog number 71456-4), supplemented with protease inhibitors, 1 mM diethiothreitol (DTT) and 20 mM imidazole. The His6-tagged fusion proteins were isolated on Ni^2+-chelating resins (Ni-NTA Superflow, Qiagen catalog number 30410) by standard procedures. When necessary, size-exclusion chromatography on a Superdex® 200 or a Superose® 6 10/300 GL columns (GE Healthcare) analytical column pre-equilibrated with 1× Dulbecco's Phosphate Buffered Saline (DPBS—Invitrogen 14190-136), 1 mM Tris-HCl (pH 7.4) or 10 mM Tris-HCl (pH 7) was used as the final purification step. The purified DnaK proteins were dialyzed thoroughly against 1× DPBS with 5 mM DTT at 4° C., for crystallization trials involving the small molecule inhibitor PET-16. For isothermal titration calorimetry studies, all HSP70 and DnaK variants were dialyzed extensively against the buffers as noted below under the section entitled “Isothermal Titration calorimetry Studies”. The dialyzed proteins were subsequently microcentrifugated at 15,000×g for 5 min at 4° C. and aliquots of the soluble proteins were stored at −80° C.
All ITC experiments were performed using a MicroCal VP-ITC isothermal titration calorimeter (MicroCal). Both full-length HSP70 and DnaK proteins and DnaK (aa 393-507) proteins were prepared in 1 mM Tris-HCl (pH 7.4) buffer containing 3% dimethylsulfoxide (DMSO). The HSP70 (aa 386-616) protein was prepared in buffer containing 3% DMSO and 10 mM Tris-HCl, pH 7. The syringe was loaded with purified protein in either 1 mM Tris-HCl (pH 7.4) buffer containing 3% DMSO or 10 mM Tris-HCl (pH 7) buffer containing 3% DMSO. The sample cell of the calorimeter was loaded with PES, PET-16 or NRLLLTG (SEQ ID NO: 7) prepared in the same buffer. All solutions were degassed for 5 min.
The titrations involving the full-length purified proteins were performed at 25° C. with injection volumes of 12 μL and a spacing of 300 s. The titrations involving the purified HSP70 (aa 386-616) and DnaK (aa 393-507) were performed at 42° C. with injection volumes of 12 μL and a spacing of 300 s. Heat from the pre-injection was not used during fitting. The data were fit using a one-site binding model available in the Origin® ITC data analysis software (MicroCal Origin® V5.0, MicroCal Software, Northampton, Mass.). Error values obtained from the MicroCal Origin® V5.0 software were averaged and reported. […]

ATP-HSP70 (WT) = biological target: T2, ATP-HSP70 (WT) (Homo sapiens, UniProt P0DMV8, E110D); assay: ITC binding to ATP-bound full-length HSP70
T2 construct: Full-length recombinant proteins of HSP70 (aa 1-641) as well as DnaK (aa 1-638); His6 (N); made in house; host or cells: E. coli BL21 Star (DE3)
Description: The human stress-inducible HSP70 (residues 1-641 or 386-616 of SEQ ID NO: 2) and E. coli DnaK (residues 1-638, 389-607, or 393-507 of SEQ ID NO: 4) were cloned into the pET25 vector (EMD Millipore Chemicals, Inc., Billerica, Mass., USA) between the NdeI and XhoI restriction sites. The full-length HSP70 and DnaK mutants were constructed by PCR-based site-directed mutagenesis using the QuikChange™ Site-Directed Mutagenesis Kit (Agilent Technologies, Inc., Santa Clara, Calif., USA). All plasmid inserts were verified by DNA sequencing. All HSP70 and DnaK variants were produced with a N-terminal His6-tag in the E. coli BL21 Star (DE3) strain (Invitrogen catalog number C6010-03). The resulting strains were grown at 37° C. in LB medium containing 50 μg/mL of carbenicillin (Sigma-Aldrich Co., St. Louis, Mo., USA). At an OD600 about 0.3 to about 0.5, protein expression was induced with 0.5 mM isopropyl-β-D-thiogalactopyranoside (IPTG), and cells were subsequently grown at 25° C. for about 16 h. Cells were collected by centrifugation and resuspended in the Bugbuster® Master Mix (EMD Millipore Chemicals catalog number 71456-4), supplemented with protease inhibitors, 1 mM diethiothreitol (DTT) and 20 mM imidazole. The His6-tagged fusion proteins were isolated on Ni^2+-chelating resins (Ni-NTA Superflow, Qiagen catalog number 30410) by standard procedures. When necessary, size-exclusion chromatography on a Superdex® 200 or a Superose® 6 10/300 GL columns (GE Healthcare) analytical column pre-equilibrated with 1× Dulbecco's Phosphate Buffered Saline (DPBS—Invitrogen 14190-136), 1 mM Tris-HCl (pH 7.4) or 10 mM Tris-HCl (pH 7) was used as the final purification step. The purified DnaK proteins were dialyzed thoroughly against 1× DPBS with 5 mM DTT at 4° C., for crystallization trials involving the small molecule inhibitor PET-16. For isothermal titration calorimetry studies, all HSP70 and DnaK variants were dialyzed extensively against the buffers as noted below under the section entitled “Isothermal Titration calorimetry Studies”. […]

ATP-bound DnaK = biological target: T3, ATP-bound DnaK (Escherichia coli, UniProt P0A6Y8); assay: ITC binding to ATP-bound DnaK; parameters: species or system E. coli; conditions: in words
T3 construct: Full-length recombinant proteins of HSP70 (aa 1-641) as well as DnaK (aa 1-638); His6 (N); made in house; host or cells: E. coli BL21 Star (DE3)
Description: The human stress-inducible HSP70 (residues 1-641 or 386-616 of SEQ ID NO: 2) and E. coli DnaK (residues 1-638, 389-607, or 393-507 of SEQ ID NO: 4) were cloned into the pET25 vector (EMD Millipore Chemicals, Inc., Billerica, Mass., USA) between the NdeI and XhoI restriction sites. The full-length HSP70 and DnaK mutants were constructed by PCR-based site-directed mutagenesis using the QuikChange™ Site-Directed Mutagenesis Kit (Agilent Technologies, Inc., Santa Clara, Calif., USA). All plasmid inserts were verified by DNA sequencing. All HSP70 and DnaK variants were produced with a N-terminal His6-tag in the E. coli BL21 Star (DE3) strain (Invitrogen catalog number C6010-03). The resulting strains were grown at 37° C. in LB medium containing 50 μg/mL of carbenicillin (Sigma-Aldrich Co., St. Louis, Mo., USA). At an OD600 about 0.3 to about 0.5, protein expression was induced with 0.5 mM isopropyl-β-D-thiogalactopyranoside (IPTG), and cells were subsequently grown at 25° C. for about 16 h. Cells were collected by centrifugation and resuspended in the Bugbuster® Master Mix (EMD Millipore Chemicals catalog number 71456-4), supplemented with protease inhibitors, 1 mM diethiothreitol (DTT) and 20 mM imidazole. The His6-tagged fusion proteins were isolated on Ni^2+-chelating resins (Ni-NTA Superflow, Qiagen catalog number 30410) by standard procedures. […]

HSP70 = biological target: T4, HSP70 (Homo sapiens, UniProt P0DMV8, E110D); assay: ITC of HSP70 preincubated with competing compound; assay type: binding; conditions: ITC competition
T4 construct: His6 (N); made in house; host or cells: E. coli BL21 Star (DE3)
Description: FIGS. 3A-3L illustrate that PET-16 binds directly to ADP-bound HSP70 and DnaK. Specifically, FIGS. 3A-3H are isothermal calorimetric titration (ITC) assays of the indicated compounds (NRLLLTG—SEQ ID NO: 7, PES or PET-16) with purified HSP70-ADP, DnaK-ADP or HSP70-ATP proteins. The data are representative of three independent experiments. FIGS. 3I and 3J are ITC assays for the interaction between HSP70 (aa 386-616 of SEQ ID NO: 2) protein and PET-16 (I) or TPP (J). Binding constants (Kd values) are shown (average and s.d. from three independent experiments). PET-16 also binds directly to the purified, full-length, nucleotide-free HSP70 protein, with a reported dissociation constant of 5.2+/−0.1 micromolar, which is the average and standard deviation from two independent experiments (data not shown). FIG. 3K is ITC assay of HSP70 protein preincubated with ADP and PES for 1 h. The mixture was titrated into the sample cell containing PET-16. The data are representative of three independent ITC experiments. FIG. 3L are western blots of human lung carcinoma (H1299) cells that were pretreated with DMSO or excess (8×) PET-16 for 1 h prior to the addition of 20 μM B-PES for 5 h and examined for the expression of HSP70 or BCL-xL. B-PES-containing complexes were captured by Avidin resins and immunoblotted either with anti-HSP70 or anti-BCL-xL antibody. […]

[1] = ITC, wild-type full-length ADP-bound HSP70

T1 sequence (P0DMV8 whole entry E110D, the tested form may be a part): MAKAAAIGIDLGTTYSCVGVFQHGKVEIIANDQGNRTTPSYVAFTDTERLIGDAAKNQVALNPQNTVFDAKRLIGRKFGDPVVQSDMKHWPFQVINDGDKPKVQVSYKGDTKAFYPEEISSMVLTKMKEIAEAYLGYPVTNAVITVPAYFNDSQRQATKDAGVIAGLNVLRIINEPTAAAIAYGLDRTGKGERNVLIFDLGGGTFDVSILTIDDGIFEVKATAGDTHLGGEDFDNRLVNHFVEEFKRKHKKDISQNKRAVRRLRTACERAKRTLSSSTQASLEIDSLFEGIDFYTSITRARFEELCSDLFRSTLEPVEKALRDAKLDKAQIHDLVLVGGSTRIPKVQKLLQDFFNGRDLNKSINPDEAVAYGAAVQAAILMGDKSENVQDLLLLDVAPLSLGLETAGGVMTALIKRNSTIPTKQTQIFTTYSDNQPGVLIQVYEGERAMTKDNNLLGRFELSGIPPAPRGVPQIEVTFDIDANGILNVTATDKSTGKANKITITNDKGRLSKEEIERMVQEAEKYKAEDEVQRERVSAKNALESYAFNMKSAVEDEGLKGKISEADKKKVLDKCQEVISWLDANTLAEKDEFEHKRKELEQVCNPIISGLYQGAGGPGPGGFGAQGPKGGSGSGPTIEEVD
T4 sequence (P0DMV8 whole entry E110D): as the sequence (P0DMV8 whole entry E110D, the tested form may be a part) above
T2 sequence (P0DMV8 whole entry E110D, the tested form may be a part): as above
T3 sequence (P0A6Y8 whole entry, the tested form may be a part): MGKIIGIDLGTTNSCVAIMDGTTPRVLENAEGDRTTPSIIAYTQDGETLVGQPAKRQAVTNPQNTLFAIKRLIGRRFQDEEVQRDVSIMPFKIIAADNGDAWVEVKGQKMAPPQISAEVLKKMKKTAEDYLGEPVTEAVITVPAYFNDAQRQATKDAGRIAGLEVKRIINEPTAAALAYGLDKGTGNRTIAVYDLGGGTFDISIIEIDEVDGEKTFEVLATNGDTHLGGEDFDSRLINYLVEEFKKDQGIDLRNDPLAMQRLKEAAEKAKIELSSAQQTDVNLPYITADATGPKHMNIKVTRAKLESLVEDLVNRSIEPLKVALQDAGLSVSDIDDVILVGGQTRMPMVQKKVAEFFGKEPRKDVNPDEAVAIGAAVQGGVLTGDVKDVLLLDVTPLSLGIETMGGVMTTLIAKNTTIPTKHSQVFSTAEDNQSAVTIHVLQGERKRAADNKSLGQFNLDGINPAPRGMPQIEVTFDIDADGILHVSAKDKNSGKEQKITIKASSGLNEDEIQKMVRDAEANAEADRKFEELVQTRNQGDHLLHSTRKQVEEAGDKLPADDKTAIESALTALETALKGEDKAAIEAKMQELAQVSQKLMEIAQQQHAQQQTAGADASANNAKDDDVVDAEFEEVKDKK

| Structure (SMILES) | Kd (ADP-HSP70 (WT, aa 1-641); [1]) [µM] | Kd (ADP-HSP70 (WT, aa 1-641); dimeric ADP-bound HSP70 (N=0.5)) [µM] | Kd (ADP-HSP70 (WT, aa 1-641); tetrameric ADP-bound HSP70 (N=0.25)) [µM] | Kd (ATP-HSP70 (WT); wild-type full-length ATP-bound HSP70) [µM] | interaction with ATP-bound DnaK (ATP-bound DnaK) | binding to HSP70 after pre-incubation with the other compound (PES / PET-16) (HSP70) | interaction with ATP-bound HSP70 (ATP-HSP70 (WT); in words) |
| --- | --- | --- | --- | --- | --- | --- | --- |
| C(#C[P+](c1ccccc1)(c1ccccc1)c1ccccc1)c1ccccc1.[Br-] [PET-16, triphenyl(phenylethynyl)phosphonium bromide] | ~3.8 | 3.8 | 1.3 | 130 ± 8.3 | notably reduced | markedly reduced |  |
| NS(=O)(=O)C#Cc1ccccc1 [PES, 2-Phenylethynesulfonamide, reference compound] | ~5.7 |  |  |  | notably reduced | impaired | notably reduced |
